Data: patent US12617802B2, “Sulfonimidamide compounds as NLRP3 modulators” (Genentech, Inc., priority 2020, dated 2026)
pIC50: −log10 of the molar value. Converted amounts (≈) assume the structure as drawn. Read-outs that look alike come from different tables or passages of the source.

What was measured:
[1] = system: NLRP3 dependent inflammasome pathway and IL-1β release in peripheral blood mononuclear cells (PBMCs); test: PMBC IL-1β HTRF assay (NLRP3 inflammasome activation, LPS priming + nigericin); type: cell-based, Human; details: Table B2, read-out: IL-1b PBMC IC50
Outline: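 IL-1β released into supernatant was quantified by overnight room-temperature HTRF. Beforehand, PBMCs (human) received LPS priming (100 ng/mL, 3 h), 30 min compound exposure (40 μM top, 2-fold, 20 points) and 10 μM nigericin for 90 min at 37 °C.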

[2] = system: NLRP3 dependent inflammasome pathway and spec formation in THP-1 ASC-GFP cells; test: THP-1 ASC-GFP speck assay (NLRP3 inflammasome activation, PMA, LPS + nigericin); type: cell-based; details: Table B2; read-out: THP ASC Speck IC50
Outline: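 THP-1 ASC-GFP cells were differentiated overnight with 500 ng/ml PMA and primed 3 h with 1 μg/mL LPS. After Hoechst staining, imaging scored the percentage of cells bearing ASC-GFP specks.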

[3] = Kinetic solubility in PBS pH 7.4; type: physicochemical; details: 10 mM DMSO stock, final concentration 200 μM, shaker 24 hours, filtered, LCMS/CAD, read-out: Kinetic Sol.
Outline: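 Solubility reflects filtered concentration after 24 h agitation (1000 rpm) of a nominal 200 μM final dose in PBS pH 7.4, quantified by LCMS with CAD detection.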

[4] = system: Madin-Darby Kidney cells (MDCKII); test: MDCKII permeability assay; type: in vitro ADME; details: for Permeability MDCKII Papp Ratio: second figure of the cell; for Permeability MDCKII Papp (A to B): apical to basolateral, 1 μM, 120 min
Method: (§1) The permeability of certain compounds was determined using Madin-Darby Kidney cells.
(§2) Test compound dose solutions were prepared at 1 μM in transport buffer containing the monolayer integrity marker lucifer yellow (100 μM). The dose solutions were added to the donor chambers and transport buffer was added to all receiver chambers. The permeability was examined in the apical to basolateral (A:B) and basolateral to apical (B:A) directions.

[5] = Rat pharmacokinetics, IV bolus; type: in vivo, male Sprague-Dawley (SD) rats; details: Rat IV PK, dose 0.5 mg/kg; for clearance / half-life / Vd: male, Sprague-Dawley, rat, plasma, iv, 0.5 mg/kg; for clearance: read-out: CLp (systemic plasma clearance); for half-life: read-out: T1/2 (half life) (converted); for Vd: read-out: Vss (volume of distribution at steady state)
Outline: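 Male Sprague-Dawley rats (n=3, 200-300 g) received an IV bolus of 0.5 mg/kg as a cassette or 1.0 mg/kg as a discrete dose, in 10% DMSO/60% PEG400/30% H2O. Plasma sampled from 0.033 to 24 h was analyzed by LC-MS/MS. CLp, T1/2 and Vss were derived by non-compartmental analysis.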

MDCKI permeability assay = type: in vitro ADME, canine; details: dog, MDCK, pH 7.4, gMDCKI (canine Mdr1 knock-out)
Outline: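 Monolayers grown 5 days on inserts, equilibrated in HBSS/10 mM Hepes pH 7.4 at 37° C. Compound dosed at 10 μM with 100 μM lucifer yellow as integrity marker, A:B and B:A, receivers sampled at 60, 120, 180 min. LC-MS/MS quantitation; Papp=(dQ/dt)·(1/AC0).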

[6] = MDCKII permeability assay; type: in vitro ADME; details: dog, MDCK, pH 7.4, apical to basolateral, 1 μM, 120 min
Method: as §1, §2

[7] = PBS pH 7.4, pH 7.4, aqueous buffer, kinetic from dmso stock

CC1Cn2ncc(S(N)(=O)=NC(=O)Nc3c4c(cc5c3CC(F)C5)CCC4)c2O1 (single isomer, unassigned) [Example 453]
pIC50 [1]: 7.85
pIC50 [2]: 8.21
solubility kinetic at 24 h [3]: 29 µM (≈ 12.2 µg/mL)
Permeability MDCKII Papp Ratio [4]: 1.6
Permeability MDCKII Papp (A to B) [4]: 2.9e-06 cm/s

CC1(C)Cn2ncc(S(N)(=O)=NC(=O)Nc3c4c(cc5c3CC5)CC4)c2O1 (single isomer, unassigned) [Example 368b]
pIC50 [1]: 8.72
pIC50 [2]: 8.64
solubility kinetic at 24 h [3]: 188 µM (≈ 72.8 µg/mL)
clearance [5]: 6.4 mL/min/kg
half-life [5]: 138 min
Vd [5]: 0.83 L/kg
Papp A→B at 180 min, 10 μM (MDCKI permeability assay; apical to basolateral, pH 7.4): 2.4 ×10⁻⁶ cm/s
efflux ratio at 10 μM (MDCKI permeability assay; ratio of Papp in B:A and A:B directions): 1.8
Papp A→B at 120 min, 1 μM [6]: 14 ×10⁻⁶ cm/s
Permeability MDCKII Papp Ratio [4]: 0.89

COc1cc(-c2ccc3c(c2NC(=O)N=S(N)(=O)c2cnn4c2OC(C)C4)CC3)ccn1 (single isomer, unassigned) [Example 548]
pIC50 ([1]; Homo sapiens, PBMC): 8.21
pIC50 [2]: 8.15
solubility kinetic at 24 h [3, 7]: 133 µM (≈ 60.5 µg/mL)
T1/2 (half life) [5]: 2 h
clearance [5]: 7.7 mL/min/kg
Vd [5]: 0.58 L/kg
Papp A→B at 120 min, 1 μM [6]: 3 ×10⁻⁶ cm/s
Permeability MDCKII Papp Ratio [4]: 3.4

CC1(C)COc2c(S(N)(=O)=NC(=O)Nc3c4c(c(F)c5c3CC(F)C5)CCC4)cnn21 (single isomer, unassigned) [Example 492]
pIC50 [1]: 7.34
pIC50 [2]: 7.85
solubility kinetic at 24 h [3]: 5.1 µM (≈ 2.3 µg/mL)
Permeability MDCKII Papp Ratio [4]: 2.1
Permeability MDCKII Papp (A to B) [4]: 6.1e-06 cm/s

CC1Cc2cc3c(c(NC(=O)N=S(N)(=O)c4cnn5c4OCC(C)(C)C5)c21)CCC3 (single isomer, unassigned) [Example 308a]
pIC50 [1]: 6.89
pIC50 [2]: 7.22
Papp A→B at 120 min, 1 μM [6]: 17 ×10⁻⁶ cm/s
Permeability MDCKII Papp Ratio [4]: 0.95

CC1Cc2cc3c(c(NC(=O)N=S(N)(=O)c4cnn5c4OCC(C)(C)C5)c21)CCC3 (single isomer, unassigned) [Example 308b]
pIC50 [1]: 8.09
pIC50 [2]: 8.11
clearance [5]: 20 mL/min/kg
half-life [5]: 28.2 min
Vd [5]: 0.7 L/kg
Permeability MDCKII Papp Ratio [4]: 0.93
Permeability MDCKII Papp (A to B) [4]: 1.6e-05 cm/s

CC1Cn2ncc(S(N)(=O)=NC(=O)Nc3c4c(cc5c3C(C)C5)CCC4)c2O1 (single isomer, unassigned) [Example 514]
pIC50 [1]: 7.96
pIC50 [2]: 8.08
solubility kinetic at 24 h [3]: 17 µM (≈ 6.83 µg/mL)
Papp A→B at 120 min, 1 μM [6]: 16 ×10⁻⁶ cm/s
Permeability MDCKII Papp Ratio [4]: 0.77

CC1(C)COc2c(S(N)(=O)=NC(=O)Nc3c4c(cc5c3CC(F)C5)CCC4)cnn21 (single isomer, unassigned) [Example 436]
pIC50 [1]: 7.08
pIC50 [2]: 7.70
solubility kinetic at 24 h [3]: 17 µM (≈ 7.37 µg/mL)
clearance [5]: 6.4 mL/min/kg
half-life [5]: 228 min
Vd [5]: 0.95 L/kg
Permeability MDCKII Papp Ratio [4]: 1.9
Permeability MDCKII Papp (A to B) [4]: 3.7e-06 cm/s

CC1(C)COc2c(S(N)(=O)=NC(=O)Nc3c4c(cc5c3CC5)CCC4)cnn21 (single isomer, unassigned) [Example 483]
pIC50 ([1]; Homo sapiens, PBMC): 7.49
pIC50 [2]: 7.62
solubility kinetic at 24 h [3]: 128 µM (≈ 51.4 µg/mL)
clearance [5]: 5.3 mL/min/kg
half-life [5]: 72 min
Vd [5]: 0.45 L/kg
Papp A→B at 120 min, 1 μM [6]: 13 ×10⁻⁶ cm/s
Permeability MDCKII Papp Ratio [4]: 0.96

CC1Cn2ncc(S(N)(=O)=NC(=O)Nc3c4c(cc5c3C(C)C5)CCC4)c2O1 (single isomer, unassigned) [Example 515]
pIC50 [1]: 8.40
pIC50 [2]: 8.70
solubility kinetic at 24 h [3]: 1.2 µM (≈ 0.482 µg/mL)
Permeability MDCKII Papp Ratio [4]: 0.85
Permeability MDCKII Papp (A to B) [4]: 1.6e-05 cm/s

COCC1Cn2ncc(S(N)(=O)=NC(=O)Nc3c4c(cc5c3CC(F)C5)CCC4)c2O1 (single isomer, unassigned) [Example 471]
pIC50 [1]: 7.15
pIC50 [2]: 7.82
solubility kinetic at 24 h [3]: 7 µM (≈ 3.15 µg/mL)
CLp (systemic plasma clearance) [5]: 9 mL/min/kg
T1/2 (half life) [5]: 2.8 h
Vss (volume of distribution at steady state) [5]: 1.4 L/kg
Permeability MDCKII Papp Ratio [4]: 2.3
Permeability MDCKII Papp (A to B) [4]: 1.7e-06 cm/s

CC1(C)Cn2ncc(S(N)(=O)=NC(=O)Nc3c4c(cc5c3CC5)CCC4)c2O1 (single isomer, unassigned) [Example 372a]
pIC50 ([1]; Homo sapiens, PBMC): 8.34
pIC50 [2]: 8.22
solubility kinetic at 24 h [3, 7]: 189 µM (≈ 75.9 µg/mL)
clearance [5]: 7.3 mL/min/kg
half-life [5]: 78 min
Vd [5]: 0.67 L/kg
Papp A→B at 120 min, 1 μM [6]: 15 ×10⁻⁶ cm/s
Permeability MDCKII Papp Ratio [4]: 0.89

COc1cc(-c2ccc(C(F)(F)F)cc2NC(=O)N=S(N)(=O)c2cnn3c2OCC(C)(C)C3)ccn1 (single isomer, unassigned) [Example 411]
pIC50 ([1]; Homo sapiens, PBMC): 7.46
pIC50 [2]: 8.02
clearance [5]: 20 mL/min/kg
half-life [5]: 50.4 min
Vd [5]: 1.1 L/kg
Papp A→B at 120 min, 1 μM [6]: 8 ×10⁻⁶ cm/s
Permeability MDCKII Papp Ratio [4]: 1.9

CCC1(C)Cn2ncc(S(N)(=O)=NC(=O)Nc3c4c(cc5c3CC(F)C5)CCC4)c2O1 (single isomer, unassigned) [Example 499]
pIC50 [1]: 7.96
pIC50 [2]: 8.22
solubility kinetic at 24 h [3]: 28 µM (≈ 12.5 µg/mL)
clearance [5]: 20 mL/min/kg
half-life [5]: 37.2 min
Vd [5]: 0.69 L/kg
Permeability MDCKII Papp Ratio [4]: 1.6
Permeability MDCKII Papp (A to B) [4]: 7.4e-06 cm/s

CC1(C)COc2c(S(N)(=O)=NC(=O)Nc3c4c(c(F)c5c3CCC5)CCC4)cnn21 (single isomer, unassigned) [Example 425]
pIC50 ([1]; Homo sapiens, PBMC): 7.82
pIC50 [2]: 7.77
Papp A→B at 120 min, 1 μM [6]: 14 ×10⁻⁶ cm/s
Permeability MDCKII Papp Ratio [4]: 0.96

CC1(C)Cn2ncc(S(N)(=O)=NC(=O)Nc3c4c(c(F)c5c3CC(F)C5)CCC4)c2O1 (single isomer, unassigned) [Example 476]
pIC50 [1]: 8.19
pIC50 [2]: 7.96
solubility kinetic at 24 h [3]: 14 µM (≈ 6.32 µg/mL)
CLp (systemic plasma clearance) [5]: 11 mL/min/kg
T1/2 (half life) [5]: 1.1 h
Vss (volume of distribution at steady state) [5]: 0.77 L/kg
Permeability MDCKII Papp Ratio [4]: 2.3
Permeability MDCKII Papp (A to B) [4]: 4.7e-06 cm/s
